Source: article PMC8813987, “Schwann cell endosome CGRP signals elicit periorbital mechanical allodynia in mice” (Nature Communications, 2022)

Target: T1, CLR/RAMP1 (calcitonin receptor-like receptor) (Homo sapiens, UniProt O60894+Q16602)
T1 construct: gene CALCRL; with RAMP1
Assay: inhibition of CGRP-evoked Ca2+ response in primary human Schwann cells (preincubation, then washout)
Type: cell-based

T1 sequence (Q16602 23-461): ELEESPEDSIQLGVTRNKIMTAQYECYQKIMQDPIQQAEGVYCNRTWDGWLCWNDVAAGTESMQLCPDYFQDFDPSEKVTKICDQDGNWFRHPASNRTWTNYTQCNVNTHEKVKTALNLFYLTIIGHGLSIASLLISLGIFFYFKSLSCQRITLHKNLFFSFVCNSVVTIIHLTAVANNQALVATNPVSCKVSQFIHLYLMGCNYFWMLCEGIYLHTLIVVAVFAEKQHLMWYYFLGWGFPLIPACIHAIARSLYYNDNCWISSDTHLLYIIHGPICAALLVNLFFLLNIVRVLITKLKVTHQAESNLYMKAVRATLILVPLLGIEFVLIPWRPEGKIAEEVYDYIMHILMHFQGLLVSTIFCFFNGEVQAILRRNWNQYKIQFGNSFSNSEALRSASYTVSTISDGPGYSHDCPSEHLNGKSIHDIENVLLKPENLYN
T1 sequence (O60894 27-148): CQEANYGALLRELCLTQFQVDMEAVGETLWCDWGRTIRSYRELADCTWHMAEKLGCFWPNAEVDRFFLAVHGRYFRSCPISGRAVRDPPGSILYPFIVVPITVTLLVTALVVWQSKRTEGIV

- IC50: 2900 nM
Compound: O=C(CN1C(=O)C2(CCCC2)NC[C@H]1c1cc(F)cc(F)c1)Nc1ccc2c(c1)C[C@@]1(C2)C(=O)Nc2ncccc21 [MK-3207]
